Patent US20220089575A1, “FARNESOID X RECEPTOR AGONISTS AND USES THEREOF” (Metacrine, Inc., priority 2017, published 2022)

molecular target: T1, hFXR (Homo sapiens, UniProt Q96RI1); assay: In Vitro FXR Assay (TK): TK-ECRE-luc reporter in transfected CV-1 cells; format: cell-based; settings: 18 hrs, luminescence, maximum efficacy of <25% of the Fexarmine control classified as '+'
T1 construct: expressed in transfected cells; host or cells: CV-1 cells
T1 sequence (Q96RI1 1-486): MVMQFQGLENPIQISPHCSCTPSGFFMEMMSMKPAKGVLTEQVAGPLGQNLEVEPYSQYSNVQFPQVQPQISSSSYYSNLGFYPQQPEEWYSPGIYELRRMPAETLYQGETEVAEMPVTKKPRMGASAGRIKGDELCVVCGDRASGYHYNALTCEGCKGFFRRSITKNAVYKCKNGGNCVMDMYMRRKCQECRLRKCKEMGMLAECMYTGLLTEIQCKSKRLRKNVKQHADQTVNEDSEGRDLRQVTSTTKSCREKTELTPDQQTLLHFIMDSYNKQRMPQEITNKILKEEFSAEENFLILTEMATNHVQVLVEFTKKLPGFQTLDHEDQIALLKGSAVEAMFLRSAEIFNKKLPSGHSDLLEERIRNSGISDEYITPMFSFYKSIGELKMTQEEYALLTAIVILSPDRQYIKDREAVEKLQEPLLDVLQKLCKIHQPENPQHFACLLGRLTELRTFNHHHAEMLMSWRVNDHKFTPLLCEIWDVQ
T1 sequence (P19793 1-462 partner): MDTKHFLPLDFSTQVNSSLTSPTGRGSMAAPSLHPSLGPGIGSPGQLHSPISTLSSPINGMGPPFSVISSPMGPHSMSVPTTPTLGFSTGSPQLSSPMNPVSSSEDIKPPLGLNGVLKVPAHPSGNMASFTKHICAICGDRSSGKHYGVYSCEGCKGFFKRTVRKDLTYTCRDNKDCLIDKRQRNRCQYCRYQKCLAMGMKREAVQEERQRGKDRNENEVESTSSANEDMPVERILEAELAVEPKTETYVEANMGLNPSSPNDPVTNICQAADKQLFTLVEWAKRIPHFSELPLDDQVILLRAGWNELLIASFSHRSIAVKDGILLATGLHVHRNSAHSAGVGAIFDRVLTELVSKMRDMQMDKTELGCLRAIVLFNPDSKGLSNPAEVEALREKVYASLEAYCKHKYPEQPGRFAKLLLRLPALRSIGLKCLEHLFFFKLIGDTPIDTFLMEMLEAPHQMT
Experimental: CV-1 cells were seeded at a density of 2,000,000 cells in a T175 flask with DMEM+10% charcoal double-stripped FBS and incubated at 37° C. in 5% CO2 for 18 h (O/N).
After 18 h of incubation, the medium in the T175 flask was changed with fresh DMEM+10% charcoal super-stripped serum. In a polypropylene tube, 2500 μL OptiMEM (Life Technologies, Cat #31985-062) was combined with expression plasmids for hFXR, hRXR, TK-ECRE-luc and pCMX-YFP. The tube was then briefly vortexed and incubated at room temperature for 5 minutes. Transfection reagent (X-tremeGENE HP from Roche, Cat #06 366 236 001) was added to the OptiMEM/plasmid mixture vortexed and incubated at room temperature for 20 minutes. Following incubation, the transfection reagent/DNA mixture complex was added to cells in the T175 flask and the cells were incubated at 37° C. in 5% CO2 for 18 h (O/N).
Compounds were serially diluted in DMSO and added to transfected CV-1 cells. The cells were then incubated for 18 hrs. The next day cells were lysed and examined for luminescence.

EC50 [nM] | SMILES
≤ 250 | CNC(=O)O[C@H]1CC[C@H](C(=O)N(C[C@H]2CC[C@H](c3ccc(OC)c(C)c3)CC2)c2cccc(-c3cnc(OC)s3)c2)CC1 [Compound 2.01, trans-4-(((trans-4-(4-Methoxy-3-methylphenyl)cyclohexyl)methyl)(3-(2-methoxythiazol-5-yl)phenyl)carbamoyl)cyclohexyl methylcarbamate]
≤ 250 | CNC(=O)O[C@H]1CC[C@H](C(=O)N(C[C@H]2CC[C@H](c3ccc(OC)c(C)n3)CC2)c2cccc(-c3cnc(C4CC4)s3)c2)CC1 [Compound 2.02, trans-4-((3-(2-Cyclopropylthiazol-5-yl)phenyl)((trans-4-(5-methoxy-6-methylpyridin-2-yl)cyclohexyl)methyl)carbamoyl)cyclohexyl methylcarbamate]
≤ 250 | CNC(=O)O[C@H]1CC[C@H](C(=O)N(CC23CCC(c4ccc(OC)c(C)c4)(CC2)CC3)c2cc(-c3cnc(C4CC4)s3)ccn2)CC1 [Compound 2.03, 4-((4-(2-Cyclopropylthiazol-5-yl)pyridin-2-yl)((4-(4-methoxy-3-methylphenyl)bicyclo[2.2.2]octan-1-yl)methyl)carbamoyl)cyclohexyl trans-methylcarbamate]
≤ 250 | CNC(=O)O[C@H]1CC[C@H](C(=O)N(C[C@H]2CC[C@H](c3ccc(OC)c(C)c3)CC2)c2cccc(C#Cc3nccs3)c2)CC1 [Compound 2.04, trans-4-(((trans-4-(4-Methoxy-3-methylphenyl)cyclohexyl)methyl)(3-(thiazol-2-ylethynyl)phenyl)carbamoyl)cyclohexyl methylcarbamate]
≤ 250 | CNC(=O)O[C@H]1CC[C@H](C(=O)N(CC23CCC(c4ccc(OC)c(C)c4)(CC2)CC3)c2cccc(C#Cc3nccs3)c2)CC1 [Compound 2.05, 4-(((4-(4-Methoxy-3-methylphenyl)bicyclo[2.2.2]octan-1-yl)methyl)(3-(thiazol-2-ylethynyl)phenyl)carbamoyl)cyclohexyl trans-methylcarbamate]
≤ 250 | CNC(=O)O[C@H]1CC[C@H](C(=O)N(C[C@H]2CC[C@H](c3ccc(OC)c(C)c3)CC2)c2cccc(-c3coc(C4CC4)n3)c2)CC1 [Compound 2.06, trans-4-((3-(2-Cyclopropyloxazol-4-yl)phenyl)((trans-4-(4-methoxy-3-methylphenyl)cyclohexyl)methyl)carbamoyl)cyclohexyl) methylcarbamate]
≤ 250 | CNC(=O)O[C@H]1CC[C@H](C(=O)N(CC23CCC(c4ccc(OC)c(C)c4)(CC2)CC3)c2cccc(-c3coc(C4CC4)n3)c2)CC1 [Compound 2.07, 4-((3-(2-Cyclopropyloxazol-4-yl)phenyl)((4-(4-methoxy-3-methylphenyl)bicyclo[2.2.2]octan-1-yl)methyl)carbamoyl)cyclohexyl trans-methylcarbamate]
≤ 250 | CNC(=O)O[C@H]1CC[C@H](C(=O)N(CC23CCC(c4ccc(OC)c(C)c4)(CC2)CC3)c2cccc(-c3cc(C4CC4)ns3)c2)CC1 [Compound 2.08, 4-((3-(3-Cyclopropylisothiazol-5-yl)phenyl)((4-(4-methoxy-3-methylphenyl)bicyclo[2.2.2]octan-1-yl)methyl)carbamoyl)cyclohexyl trans-methylcarbamate]

Continued, molecule first:

SMILES | EC50 [nM]
CNC(=O)O[C@H]1CC[C@H](C(=O)N(C[C@H]2CC[C@H](c3ccc(N(C)C)nc3)CC2)c2cccc(-c3cnc(C4CC4)s3)c2)CC1 [Compound 1, trans-4-((3-(2-Cyclopropylthiazol-5-yl)phenyl)((trans-4-(6-(dimethylamino)pyridin-3-yl)cyclohexyl)methyl)carbamoyl)cyclohexyl methylcarbamate] | ≤ 250
CNC(=O)O[C@H]1CC[C@H](C(=O)N(C[C@H]2CC[C@H](c3ccc(OC)c(C)c3)CC2)c2cccc(-c3cnc(C4CC4)s3)c2)CC1 [Compound 1.01, trans-4-((3-(2-Cyclopropylthiazol-5-yl)phenyl)((trans-4-(4-methoxy-3-methylphenyl)cyclohexyl)methyl)carbamoyl)cyclohexyl methylcarbamate] | ≤ 250
CNC(=O)O[C@H]1CC[C@H](C(=O)N(CC23CCC(c4ccc(N(C)C)nc4)(CC2)CC3)c2cccc(-c3cnc(C4CC4)s3)c2)CC1 [Compound 1.02, 4-((3-(2-Cyclopropylthiazol-5-yl)phenyl)((4-(6-(dimethylamino)pyridin-3-yl)bicyclo[2.2.2]octan-1-yl)methyl)carbamoyl)cyclohexyl trans-methylcarbamate] | ≤ 250
CNC(=O)O[C@H]1CC[C@H](C(=O)N(C[C@H]2CC[C@H](c3ccc4c(c3)c(F)nn4C)CC2)c2cccc(-c3cnc(C4CC4)s3)c2)CC1 [Compound 1.03, trans-4-((3-(2-Cyclopropylthiazol-5-yl)phenyl)((trans-4-(3-fluoro-1-methyl-1H-indazol-5-yl)cyclohexyl)methyl)carbamoyl)cyclohexyl methylcarbamate] | ≤ 250
CNC(=O)O[C@H]1CC[C@H](C(=O)N(C[C@H]2CC[C@H](c3ccc(OC)c(C)c3)CC2)c2cccc(-c3cnn(C4CC4)c3)c2)CC1 [Compound 1.04, trans-4-((3-(1-Cyclopropyl-1H-pyrazol-4-yl)phenyl)((trans-4-(4-methoxy-3-methylphenyl)cyclohexyl)methyl)carbamoyl)cyclohexyl methylcarbamate] | ≤ 250
CNC(=O)O[C@H]1CC[C@H](C(=O)N(CC23CCC(c4ccc(OC)c(C)c4)(CC2)CC3)c2cccc(-c3cnn(C4CC4)c3)c2)CC1 [Compound 1.05, 4-((3-(1-Cyclopropyl-1H-pyrazol-4-yl)phenyl)((4-(4-methoxy-3-methylphenyl)bicyclo[2.2.2]octan-1-yl)methyl)carbamoyl)cyclohexyl trans-methylcarbamate] | ≤ 250
COc1ccc([C@H]2CC[C@H](CN(c3cccc(-c4cnn(C5CC5)c4)c3)C(=O)[C@H]3CC[C@H](OC(N)=O)CC3)CC2)cc1C [Compound 1.06, trans-4-((3-(1-Cyclopropyl-1H-pyrazol-4-yl)phenyl)((trans-4-(4-methoxy-3-methylphenyl)cyclohexyl)methyl)carbamoyl)cyclohexyl carbamate] | ≤ 250
COC(=O)O[C@H]1CC[C@H](C(=O)N(C[C@H]2CC[C@H](c3ccc(OC)c(C)c3)CC2)c2cccc(-c3cnn(C4CC4)c3)c2)CC1 [Compound 1.07, trans-4-((3-(1-Cyclopropyl-1H-pyrazol-4-yl)phenyl)((trans-4-(4-methoxy-3-methylphenyl)cyclohexyl)methyl)carbamoyl)cyclohexyl methyl carbonate] | ≤ 250
COc1ccc(C23CCC(CN(c4cccc(-c5cnn(C6CC6)c5)c4)C(=O)[C@H]4CC[C@H](OC(N)=O)CC4)(CC2)CC3)cc1C [Compound 1.08, 4-((3-(1-Cyclopropyl-1H-pyrazol-4-yl)phenyl)((4-(4-methoxy-3-methylphenyl)bicyclo[2.2.2]octan-1-yl)methyl)carbamoyl)cyclohexyl trans-carbamate] | ≤ 250
CNC(=O)O[C@H]1CC[C@H](C(=O)N(C[C@H]2CC[C@H](c3ccc4c(c3)c(F)nn4C)CC2)c2cccc(-c3cnn(C4CC4)c3)c2)CC1 [Compound 1.09, trans-4-((3-(1-Cyclopropyl-1H-pyrazol-4-yl)phenyl)((trans-4-(3-fluoro-1-methyl-1H-indazol-5-yl)cyclohexyl)methyl)carbamoyl)cyclohexyl methylcarbamate] | ≤ 250
CNC(=O)O[C@H]1CC[C@H](C(=O)N(C[C@H]2CC[C@H](c3ccc(OC)c(C)n3)CC2)c2cccc(-c3cnn(C(C)C)c3)c2)CC1 [Compound 1.10, trans-4-((3-(1-Isopropyl-1H-pyrazol-4-yl)phenyl)((trans-4-(5-methoxy-6-methylpyridin-2-yl)cyclohexyl)methyl)carbamoyl)cyclohexyl methylcarbamate] | ≤ 250
CNC(=O)O[C@H]1CC[C@H](C(=O)N(C[C@H]2CC[C@H](c3ccc(OC)c(C)c3)CC2)c2cccc(-c3cc(C4CC4)ns3)c2)CC1 [Compound 2, trans-4-((3-(3-Cyclopropylisothiazol-5-yl)phenyl)((trans-4-(4-methoxy-3-methylphenyl)cyclohexyl)methyl)carbamoyl)cyclohexyl methylcarbamate] | ≤ 250
